Measured values taken from patent US9844566B2, “Pharmaceutical composition for the preparation of infusion solutions of antimicrobial preparations, its production process (variations)” (priority 2011, dated 2017).

Legend:
Type in all cases: in vivo
[1] = system: Staphylococcus aureus (ATCC No 25923 F-49); test: Experimental sepsis model in mice, S. aureus: survival on the seventh day; details: for Mice survival rate on the 7th day of infection, S. aureus: mice infected i.v. 10^10 CFU/mouse, i.v. treatment daily for 3 days; for Mice survival on the 7th day, absolute values (survival rate/infected animals), S. aureus: survivors/infected mice
Procedure: (§1) Determination of therapeutic efficiency of antimicrobial agents was done on experimental models of sepsis and methods for statistical treatment of the obtained results (χ^2) according to [R19 and R20].
(§2) Microgerms. Staphylococcus aureus (ATCC No 25923 F-49), Escherichia coli (ATCC No25922 F-50), Pseudomonas aeruginosa (ATCC No 27853 F-51), Candida albicans (ATCC No 24433).
(§3) Animals. The experiments were carried out on hybrid mice (CBA×C57Black/6)CBF1 according to the “Regulations for test animals use” (USSR Ministry of health, order supplement No 755 from Dec. 8, 1977).
(§4) Experimental sepsis models. Tested mice were injected intravenously 0.8 ml of P. aeruginosa daily culture suspension with a dosage 5×10^8 CFU/mouse or S. aureus daily culture suspension with a dosage 10^10 CFU/mouse or E. coli daily culture suspension with a dosage 8×10^8 CFU/mouse or Candida albicans daily culture suspension with a dosage 10^10 CFU/mouse. Mice of a control group were injected the 0.9% solution of NaCl or 5% dextrose solution in the volume of 0.8 ml.
(§5) In a day after being infected, during 3 days, the tested mice were daily intravenously injected with the indicated above antimicrobial preparations, dissolved in 0.9% solution of NaCl or in 5% dextrose solution, as well as their solutions prepared based on the pharmaceutical composition (as described hereinabove).
(§6) All beta-lactams were injected daily in the amount of 0.2 mg/mouse, amikacin sulfate in the amount of 2 mg/mouse daily, vancomycin in the amount of 1 mg/mouse daily, fosfomycin in the amount of 2 mg/mouse daily, and voriconazole in the amount of 0.1 mg/mouse contained in 0.5 ml of solution. Following the same order, the control group was injected with 0.9% NaCl solution or 5% dextrose solution, as well as water solutions of the pharmaceutical composition in the volume of 0.5 ml.
(§7) The antibacterial therapy efficiency was evaluated based on the number of surviving mice on the seventh day after being infected [R19, R20].
(§8) The obtained data shown in Tables 3 and 4 reflect the results of three independent experiments (at least 30 test animals were used for research of each inventive pharmaceutical preparation).

[2] = system: Escherichia coli (ATCC No25922 F-50); test: Experimental sepsis model in mice, E. coli: survival on the seventh day; details: for Mice survival rate on the 7th day of infection, E. coli: mice infected i.v. 8×10^8 CFU/mouse, i.v. treatment daily for 3 days; for Mice survival on the 7th day, absolute values (survival rate/infected animals), E. coli: survivors/infected mice
Procedure: as §1, §2, §3, §4, §5, §6, §7, §8

[3] = system: Pseudomonas aeruginosa (ATCC No 27853 F-51); test: Experimental sepsis model in mice, P. aeruginosa: survival on the seventh day; details: for Mice survival rate on the 7th day of infection, P. aeruginosa: mice infected i.v. 5×10^8 CFU/mouse, i.v. treatment daily for 3 days; for Mice survival on the 7th day, absolute values (survival rate/infected animals), P. aeruginosa: survivors/infected mice
Procedure: as §1, §2, §3, §4, §5, §6, §7, §8

[4] = system: Candida albicans (ATCC No 24433); test: Experimental mycotic sepsis model in mice, Candida albicans: survival on the seventh day; details: for Mice survival rate on the 7th day of infection, Candida albicans: mice infected i.v. 10^10 CFU/mouse, i.v. treatment daily for 3 days; for Mice survival on the 7th day, absolute values (survival rate/infected animals), Candida albicans: survivors/infected mice
Procedure: as §1, §2, §3, §4, §5, §6, §7, §8

[5] = Table 3 (0.9% NaCl or NaCl:Colloidal silica)
[6] = Table 4 (5% dextrose or Dextrose:Colloidal silica)

Row | Compound | Mice survival rate on the 7th day of infection, S. aureus [1, 5] | Mice survival on the 7th day, absolute values (survival rate/infected animals), S. aureus [1, 5] | Mice survival rate on the 7th day of infection, S. aureus [1, 6] | Mice survival on the 7th day, absolute values (survival rate/infected animals), S. aureus [1, 6] | Mice survival rate on the 7th day of infection, E. coli [2, 5] | Mice survival on the 7th day, absolute values (survival rate/infected animals), E. coli [2, 5] | Mice survival rate on the 7th day of infection, E. coli [2, 6] | Mice survival on the 7th day, absolute values (survival rate/infected animals), E. coli [2, 6] | Mice survival rate on the 7th day of infection, P. aeruginosa [3, 5] | Mice survival on the 7th day, absolute values (survival rate/infected animals), P. aeruginosa [3, 5] | Mice survival rate on the 7th day of infection, P. aeruginosa [3, 6] | Mice survival on the 7th day, absolute values (survival rate/infected animals), P. aeruginosa [3, 6] | Mice survival rate on the 7th day of infection, Candida albicans [4, 5] | Mice survival on the 7th day, absolute values (survival rate/infected animals), Candida albicans [4, 5] | Mice survival rate on the 7th day of infection, Candida albicans [4, 6] | Mice survival on the 7th day, absolute values (survival rate/infected animals), Candida albicans [4, 6]
1 | CO/N=C(\C(=O)N[C@@H]1C(=O)N2C(C(=O)O)=C(COC(C)=O)CS[C@H]12)c1csc(N)n1 [Cefotaxime/0.9% NaCl solution, cefotaxime] | 43.7% | (14/32) | 42.8% | (15/35) | 37.5% | (12/32) | 43.7% | (14/32) |  |  |  |  |  |  |  | 
2 | CC(C)(O/N=C(\C(=O)N[C@@H]1C(=O)N2C(C(=O)[O-])=C(C[n+]3ccccc3)CS[C@H]12)c1csc(N)n1)C(=O)O [Ceftazidime/0.9% NaCl solution, ceftazidime] | 38.7% | (12/31) | 40.0% | (12/30) | 48.4% | (15/31) | 53.3% | (16/30) | 46.7% | (14/30) | 46.8% | (15/32) |  |  |  | 
3 | CC[C@H]1OC(=O)[C@H](C)[C@@H](O[C@H]2C[C@@](C)(OC)[C@@H](O)[C@H](C)O2)[C@H](C)[C@@H](O[C@@H]2O[C@H](C)C[C@H](N(C)C)[C@H]2O)[C@](C)(O)C[C@@H](C)CN(C)[C@H](C)[C@@H](O)[C@]1(C)O [Azithromycin/0.9% NaCl solution, azithromycin] | 43.3% | (13/30) | 43.3% | (13/30) |  |  |  |  |  |  |  |  |  |  |  | 
4 | voriconazole [Voriconazole/0.9% NaCl solution] |  |  |  |  |  |  |  |  |  |  |  |  | 45.1% | (14/31) | 46.7% | (14/30)
5 | C[C@@H](O)[C@H]1C(=O)N2C(C(=O)O)=C(S[C@@H]3CN[C@H](C(=O)N(C)C)C3)[C@H](C)[C@H]12 [Meropenem/0.9% NaCl solution, meropenem] | 70.9% | (22/31) | 73.8% | (31/42) | 73.8% | (31/42) | 78.0% | (32/41) | 71.8% | (23/32) | 74.4% | (32/43) |  |  |  | 
6 | CO/N=C(\C(=O)N[C@@H]1C(=O)N2C(C(=O)[O-])=C(C[N+]3(C)CCCC3)CS[C@H]12)c1csc(N)n1 [Cefepime/0.9% NaCl solution, cefepime] | 46.7% | (14/30) | 56.7% | (17/30) | 58.1% | (18/31) | 54.4% | (17/31) | 51.6% | (16/31) | 50.0% | (15/30) |  |  |  | 
7 | ceftriaxone [Ceftriaxone/5% dextrose solution] |  |  | 40.6% | (13/32) |  |  | 45.2% | (14/31) |  |  |  |  |  |  |  | 
8 | CN[C@H](CC(C)C)C(=O)N[C@H]1C(=O)N[C@@H](CC(N)=O)C(=O)N[C@H]2C(=O)N[C@H]3C(=O)N[C@H](C(=O)N[C@H](C(=O)O)c4cc(O)cc(O)c4-c4cc3ccc4O)[C@H](O)c3ccc(c(Cl)c3)Oc3cc2cc(c3O[C@@H]2O[C@H](CO)[C@@H](O)[C@H](O)[C@H]2O[C@H]2C[C@](C)(N)[C@H](O)[C@H](C)O2)Oc2ccc(cc2Cl)[C@H]1O [Vancomycin/0.9% NaCl solution, vancomycin] | 71.4% | (30/42) | 77.5% | (31/40) |  |  |  |  |  |  |  |  |  |  |  | 
9 | aztreonam [Aztreonam/0.9% NaCl solution] |  |  |  |  | 70.0% | (21/30) |  |  | 67.7% | (21/31) |  |  |  |  |  | 
10 | C[C@@H]1O[C@@H]1P(=O)(O)O [Fosfomycin/0.9% NaCl solution, fosfomycin] | 36.7% | (11/30) | 43.7% | (14/32) | 43.3% | (13/30) | 46.7% | (14/30) | 30.0% | (9/30) | 35.2% | (15/34) |  |  |  | 
11 | NCC[C@H](O)C(=O)N[C@@H]1C[C@H](N)[C@@H](O[C@H]2O[C@H](CN)[C@@H](O)[C@H](O)[C@H]2O)[C@H](O)[C@H]1O[C@H]1O[C@H](CO)[C@@H](O)[C@H](N)[C@H]1O.O=S(=O)(O)O.O=S(=O)(O)O [Amikacin sulfate/0.9% NaCl solution, amikacin sulfate] |  |  |  |  | 48.3% | (15/31) | 46.7% | (14/30) |  |  |  |  |  |  |  | 
